Reference: patent US6919306B2, “Method of skin care” (Yaizu Suisankagaku Industry Co. Ltd., priority 1999, dated 2005)
Marks after values point to notes of the source that are not given here.

Assays:
[1] = Solubility of natural-type NAG in water; format: physicochemical; conditions: water of 25° C.
Description: In the present invention, as a carrier for the skin care agent, foods such as confectioneries, powdered soups, dairy products and beverages, may, for example, be mentioned. As such foods, specifically, gum, candies, tabletted confectioneries, chocolate, jelly, cookies, snacks, corn potage soup, consomme soup, milk, pudding, yogurt, ice cream, lactic acid beverages, alcohol beverages, vitamin beverages, mineral beverages, coffee beverages, near water, nutrition drinks, and the like, may be mentioned.

[2] = system: females having a tendency of xeroderma and rough skin; assay: Dermatologic examination and doctor's questions, double blind long-term ingestion study; format: in vivo, human; conditions: for Face, Cosmetic dermatitis, average score / Face, Spread of cosmetics, average score / Whole body, Desquamation, average score / Whole body, Erosion, average score / Whole body, Flushing, average score / Whole body, Papula, average score / Whole body, Pruritus, average score / Whole body, Vesicle, average score / Face, Dessication, average score / Face, Flushing, average score / General observation, average score / Whole body, Dessication, average score: NAG 1,000 mg/day oral
Protocol: To 22 females usually having a tendency of xeroderma and rough skin (average age: 25.5±10.7), a double blind long-term ingestion study was carried out in the following manners provided that a […] were given to a control group.
NAG-containing tablets-administered group (NAG group, n=11): Tablets prepared similarly as in Example 1 as described below (NAG amount: 200 mg/tablet), were ingested at a rate of 5 tablets/day (NAG 1,000 mg/day, as a daily dose).
Placebo-administered group (Placebo group, n=11): Tablets prepared similarly provided that lactose was used instead of NAG, were ingested at a rate of 5 tablets/day.
The ingestion period was 8 weeks in each group. The inspection was in principle carried out just before the start of ingestion, 4 weeks after the start of ingestion, and just before the completion of ingestion (8 weeks after the start of ingestion).
In the observation of whole body, 4 ranks evaluation (0: no symptom, 1: slight, 2: medium, 3: severe) was conducted with respect to pruritus, desiccation, flushing, erosion, desquamation, papula, vesicle and tumefaction. In the observation of face, 4 ranks evaluation was similarly conducted with respect to cosmetic dermatitis, desiccation, flushing and spread of cosmetics. Further, amelioration of general symptom including the observations of the whole body and face, was evaluated as a general observation. These evaluations were conducted by a plurality of doctors designated by Japan Dermatologic Science Society. The results are shown in Table 3 (average value of each score of each group).

[3] = system: skin conditions of adult female volunteers; assay: Questionnaire on skin conditions after tablet ingestion; format: in vivo, human; conditions: NAG 1.2 g per day oral tablets, 60 days
Protocol: 20 adult female volunteers of age ranging from 25 to 45 years old were classified into two groups i.e. a test group and a control group. They were asked to take tablets prepared similarly as in Example 1 as described below at a rate of […], twice a day (NAG ingestion amount per day: 1.2 g) together with water, provided that the tablets for the control group were prepared by using lactose as a placebo instead of NAG. The test period was 60 days, and after the completion of test, they were questioned about skin conditions and the like by questionnaires. No particular restriction was made with respect to diet, makeup and the like during the test period.

Wister rats (SPF) = assay: Acute toxic test of NAG; format: in vivo; conditions: rat
Protocol: To each of five males and five females of Wister rats (SPF), NAG was given by a single oral administration in an amount of 5,000 mg per kg of body weight. After the administration, these rats were bred for 14 days and observed, and no death was recognized. It was also recognized that the 50% lethal dose (LD50) to the rats was at least 5,000 mg per kg of body weight.

hyaluronic acid in skin = assay: Influence of orally administered NAG on hyaluronic acid content in skin; format: in vivo, hairless rats; conditions: for Hyaluronic acid content, Epidermis / Hyaluronic acid content, Corium: hairless rats; for Hyaluronic acid content, Epidermis: 4 weeks (0 mg/kg/day: 31.25); for Hyaluronic acid content, Corium: 4 weeks (0 mg/kg/day: 462.7)
Protocol: Using hairless rats, influence of orally administered NAG on the content of hyaluronic acid in skin was tested. The NAG prepared in PREPARATION EXAMPLE 1 was mixed to a basic feed (Solid feed MF, manufactured by Oriental Kobo Kogyo Kabushiki Kaisha), and rats were permitted to freely ingest the mixture so that the substantial administered amount of NAG would be 0, 20 or 200 mg/kg of body weight/day. Administration was continued for 4 weeks from 9 week instar to 13 week instar, and the hyaluronic acid amounts in skin layer were measured separately for epidermis and corium. In this connection, the measurement of the hyaluronic acid was carried out in accordance with a hyaluronic acid measurement kit (manufactured by Chugai Shindanyaku Co.).

[4] = after 4 weeks, score 0-3, p < 0.05
[5] = after 8 weeks, score 0-3, p < 0.05

CC(=O)N[C@H]1C(O)O[C@H](CO)[C@@H](O)[C@@H]1O (stereo partly drawn) [NAG, N-acetylglucosamine]
solubility in water [1]: 32 % by weight | Face, Cosmetic dermatitis, average score ([2]; after 4 weeks, score 0-3): 1.00 | Face, Spread of cosmetics, average score ([2]; after 4 weeks, score 0-3): 1.33 | Whole body, Desquamation, average score ([2]; after 4 weeks, score 0-3): 1.33 | Whole body, Erosion, average score ([2]; after 4 weeks, score 0-3): 1.00 | Whole body, Flushing, average score ([2]; after 4 weeks, score 0-3): 0.80 | Whole body, Papula, average score ([2]; after 4 weeks, score 0-3): 1.50 | Whole body, Pruritus, average score ([2]; after 4 weeks, score 0-3): 0.90 | Whole body, Vesicle, average score ([2]; after 4 weeks, score 0-3): 2.00 | Face, Dessication, average score ([2]; after 4 weeks, score 0-3, p < 0.01): 1.18** | Face, Flushing, average score [2, 4]: 1.10* | General observation, average score [2, 4]: 1.27* | Whole body, Dessication, average score [2, 4]: 1.36* | Face, Cosmetic dermatitis, average score ([2]; after 8 weeks, score 0-3): 1.33 | Whole body, Desquamation, average score ([2]; after 8 weeks, score 0-3): 1.00 | Whole body, Erosion, average score ([2]; after 8 weeks, score 0-3): 0.00 | Whole body, Flushing, average score ([2]; after 8 weeks, score 0-3): 0.40 | Whole body, Papula, average score ([2]; after 8 weeks, score 0-3): 1.50 | Whole body, Pruritus, average score ([2]; after 8 weeks, score 0-3): 0.60 | Whole body, Vesicle, average score ([2]; after 8 weeks, score 0-3): 2.00 | Face, Dessication, average score [2, 5]: 1.00* | Face, Flushing, average score [2, 5]: 1.10* | Face, Spread of cosmetics, average score [2, 5]: 0.83* | General observation, average score [2, 5]: 1.09* | Whole body, Dessication, average score [2, 5]: 1.00* | Face, Dessication, average score ([2]; before ingestion, score 0-3): 2.00 | Face, Flushing, average score ([2]; before ingestion, score 0-3): 1.80 | Face, Spread of cosmetics, average score ([2]; before ingestion, score 0-3): 1.83 | General observation, average score ([2]; before ingestion, score 0-3): 1.82 | Whole body, Desquamation, average score ([2]; before ingestion, score 0-3): 1.33 | Whole body, Dessication, average score ([2]; before ingestion, score 0-3): 2.09 | Whole body, Erosion, average score ([2]; before ingestion, score 0-3): 2.00 | Whole body, Flushing, average score ([2]; before ingestion, score 0-3): 1.40 | Whole body, Papula, average score ([2]; before ingestion, score 0-3): 1.00 | Whole body, Pruritus, average score ([2]; before ingestion, score 0-3): 1.40 | Whole body, Vesicle, average score ([2]; before ingestion, score 0-3): 1.00 | Face, Cosmetic dermatitis, average score ([2]; before ingestion, score 0 no symptom to 3 severe): 1.00 | symptom of whole body: "dessication" ([2]; NAG group, 1,000 mg/day oral, 8 weeks, also significant in placebo group): significant improvements | symptoms of face: "dessication", "flushing" and "spread of cosmetics" ([2]; NAG group, 1,000 mg/day oral, 8 weeks, placebo no significance): significant improvements | general observation ([2]; NAG group, 1,000 mg/day oral, 8 weeks, placebo no significant improvement): significant improvements | skin-beautification effect ([3]; versus placebo region): recognized | Fine wrinkles decreased (number of persons) ([3]; test region, placebo 1): 5 | Skin conditions worsened as a whole (number of persons) ([3]; test region, placebo 1): 0 | Feel moistness in skin (number of persons) ([3]; test region, placebo 2): 7 | Feel tension in skin (number of persons) ([3]; test region, placebo 2): 6 | Skin conditions improved as a whole (number of persons) ([3]; test region, placebo 2): 8 | No change (including unidentified) (number of persons) ([3]; test region, placebo 5): 2 | 50% lethal dose (LD50) (Wister rats (SPF); both, Wister, in vivo, po, 14 days): at least 5,000 mg per kg of body weight | safety on oral administration (Wister rats (SPF); orally administered 5 g per kg of body weight): safety is confirmed | hyaluronic acid contents in epidermis and corium versus administered amount (hyaluronic acid in skin; hairless rats, 0, 20 or 200 mg/kg/day, 4 weeks): tend to increase together in proportion to the administered amounts | Hyaluronic acid content, Epidermis (hyaluronic acid in skin; NAG 20 mg/kg/day in feed): 33.77 μg/g dried tissue | Hyaluronic acid content, Corium (hyaluronic acid in skin; NAG 20 mg/kg/day in feed): 506.6 μg/g dried tissue | Hyaluronic acid content, Epidermis (hyaluronic acid in skin; NAG 200 mg/kg/day in feed): 35.09 μg/g dried tissue | Hyaluronic acid content, Corium (hyaluronic acid in skin; NAG 200 mg/kg/day in feed): 549.8 μg/g dried tissue
